Source: US20260315446A1, “ANTIFUNGAL COMPOUNDS AND USES THEREOF” (priority 2023, published 2026)

Legend:
[1] = system: Aspergillus fumigatus (akuBKu80 hFKBP12); test: MIC/MEC against humanized A. fumigatus strain; type: cell-based
Description: To confirm that JH-FK-05 was fungal FKBP12-dependent, a humanized A. fumigatus strain (the akuB^Ku80 hFKBP12 strain) expressing a codon-optimized human FKBP12 gene from the Affkbp12 native locus was utilized.
In vitro antifungal activities of FK506, FK520, and analogs were assessed in RPMI 1640 (Sigma-Aldrich) for all strains tested. MICs/minimum effective concentrations (MECs) for each drug were measured using modified Clinical and Laboratory Standards Institute (CLSI) M38-A2 and M27-A3 standard in vitro antifungal susceptibility protocols. Broth microdilution assays for MIC/MEC assessment were performed as described previously (see, Juvvadi P R, et al., 2019, Nat Commun 10:4275). All antifungal assays with C. neoformans were performed at 37° C. Antifungal susceptibility testing for C. albicans was performed in the presence of a uniform 1 μg/mL concentration of fluconazole to sensitize the organism to calcineurin inhibition.

[2] = system: Cryptococcus deneoformans; test: MIC assay (Example 3); type: cell-based; conditions: 72 hours with 5 times starting amount of cells
Description: For the lead compound JH-FK-08, the mechanism of action resulting in antifungal activity was tested for conservation of calcineurin inhibition. To probe the JH-FK-08 mechanism of action, MICs of JH-FK-08 were determined with fungal mutants that lack the drug-binding protein FKBP12 or have mutations in the binding site on calcineurin that prevent FKBP12-FK506 binding and inhibition. […] Taken together, these findings support the hypothesis that JH-FK-08 requires FKBP12 for antifungal activity, and the target of the FKBP12-JH-FK-08 complex is calcineurin. The length of time that drugs are active in vivo is critical information relevant to drug development, and the time frame of drug activity can have a drastic impact on treatment regimen and efficacy. Therefore, the pharmacokinetic profiles of FK506 and JH-FK-08 were investigated. Three male and three female CD1 mice were administered a single dose of JH-FK-08 or FK506 at 40 mg/kg. Whole blood samples were taken over a 24-hour period, and the drug concentration remaining in the blood was determined. Pharmacokinetic parameters were calculated using a non-compartmental approach (see, Gabrielsson J, Weiner D. 2012. Methods Mot Biol Clifton NJ 929:377-389). […] When assessing specific pharmacokinetic measures, sex differences began to emerge.
In vitro antifungal activity was assessed for all fungal strains in RPMI 1640 (Sigma-Aldrich R1383). MICs were measured using Clinical and Laboratory Standards Institute (CLSI) M38-A2 and M27-A3 standard in vitro antifungal susceptibility protocols. C. neoformans and A. fumigatus testing was performed at 37° C. MECs for A. fumigatus were recorded after 48 h of growth. C. albicans testing was performed at 30° C. with a uniform concentration of 2 μg/mL of fluconazole to sensitize the cells to calcineurin inhibition.
C. neoformans clinical isolate H99 and congenic-derived strain KN99α were used (see, Nielsen K, et al., 2003. Infect Immun 71:4831-4841). […]

[3] = In vivo tolerability of JH-FK-08; design: species or system mouse (A/J); conditions: 40 mg/kg once daily, 14 days
Description: FIG. 14: In vivo tolerability of JH-FK-08. Maximum tolerated dose study of female A/J mice (n=3). Animals received once daily (A) and twice daily (B) dosing, and weight over time was plotted as percent change from initial body weight.
Based on the in vitro fungal and mammalian calcineurin inhibition data, the panel of FK520 analogs was assessed and ranked. Therapeutic index (TI) scores were used to quantify the effects of structural modification on the compounds (Table 8). Therapeutic index scores were calculated for each analog as the ratio of relative change in immunosuppressive and antifungal activities compared to FK506 as previously utilized (see, I-Toy M J, et at. 2022. mBio 13:e0104922). This ratio of therapeutic benefit and host toxicity, or fungal and mammalian calcineurin inhibition, allowed us to quantify and rank these analogs. […] This is the greatest TI found within the library and allowed us to identify JH-FK-08 as a lead candidate for an in vivo study. Tolerability of JH-FK-08 was assessed by monitoring animal responses to drug dosing across 14 days, including changes in weight, fur condition, and behavior. A maximum dose of 40 mg/kg was tested in once a day dosing, and due to solubility limitations, the tolerability of JH-FK-08 at 60 and 80 mg/kg total daily doses was assessed by dosing two equal doses per day (FIG. 14). […]

In the case of `CC[C@@H]1/C=C(\C)C[C@H](C)C[C@H](OC)[C@H]2O[C@@](O)(C(=O)C(=O)N3CCCC[C@H]3C(=O)O[C@H](/C(C)=C/[C@@H]3CC[C@@H](O)[C@H](OC)C3)[C@H](C)[C@@H](O)C/C1=N/NC(C)=O)[C@H](C)C[C@@H]2OC` [JH-FK-05], the “antifungal activity against hFKBP12-expressing A. fumigatus strain” value [1] was “no detectable antifungal activity” and the MIC/MEC ([1]; strain akuBKu80 hFKBP12) was greater than 8 µg/mL.
Compound `CC[C@@H]1/C=C(\C)C[C@H](C)C[C@H](OC)[C@H]2O[C@@](O)(C(=O)C(=O)N3CCCC[C@H]3C(=O)O[C@H](/C(C)=C/C3CC[C@@H](O)[C@H](OC)C3)[C@H](C)[C@@H](O)C/C1=N/NC(=O)OC)[C@H](C)C[C@@H]2OC` (stereo partly shown) [JH-FK-08] has an MIC/MEC ([2]; strain C21F2 (JEC21 CNB1-1)) greater than 25 µg/mL, an MIC/MEC ([2]; strain C21F3 (JEC21 frr1)) greater than 25 µg/mL and an MIC/MEC ([2]; strain JEC21) of less than 0.4 µg/mL. The “tolerability” value ([3]; 60 and 80 mg/kg total daily in two equal doses) was “Animals tolerated all dosages” and the “weight difference from vehicle-treated animals” value ([3]; 60 and 80 mg/kg total daily) was no more than 10%.
